Assay results from US5026687A (priority 1990, dated 1991).
Entries after “also recorded” stand apart in the source; their conditions may differ.

Legend:
[1] = tested on: HIV (cytopathic effect, ATH8 T cell line); assay: Protection of ATH8 T cell line against cytopathic effect of HIV (synergy of combinations); assay type: cell-based, human immunodeficiency virus; conditions: in vitro
[2] = beagle dog; previously shown; cited from earlier work
[3] = Conversion of 2',3'-dideoxyadenosine in patients; assay type: in vivo, human
Text: In addition to the 37 patients mentioned above, another 20 patients have been treated for a total of 57.

[4] = human, in vivo
[5] = tested on: anergic patients; assay: Cutaneous delayed type hypersensitivity reaction (skin test reactivity) of anergic patients; assay type: in vivo, human
[6] = human, in vivo; remark: listed apart in the source
[7] = clinical; conditions: human, in vivo, iv, 3.2 mg/kg
[8] = tested on: patients with AIDS or AIDS-related complex; assay: Clinical improvement (well being, energy, weight, duration of benefit) in treated patients; assay type: in vivo, human
Text: Other patients had fatigue, loss of appetite, fevers, or recent weight loss. Many of these patients could not tolerate therapy with 3'-azido-2',3'-dideoxythymidine (AZT, zidovudine) because of nausea, malaise, or bone marrow toxicity, or were clinically deteriorating while on AZT treatment.

[9] = tested on: HIV; assay: Serum HIV p24 antigen and HIV load in treated patients; assay type: in vivo
[10] = tested on: HIV-infected patients; assay: Combination therapy of patients with 2',3'-dideoxyinosine and other agents; assay type: in vivo, human
Text: Examples of such therapies are disclosed in the following examples.
These two drugs are alternated in this manner about week-by-week for about one year. […] These two drugs are alternated about week-by-week for about 6 months.

[11] = human, in vivo; remark: listed apart in the source
[12] = tested on: human immunodeficiency virus-associated neurological dysfunction; assay: Cognitive function in patients with HIV-associated neurological dysfunction
[13] = tested on: retroviral replication; conditions: cited from earlier work
[14] = tested on: patients with AIDS or AIDS-related complex; assay: Immune parameters (circulating CD4+, CD8+, total lymphocytes, CD4+:CD8+ ratio) in treated patients; assay type: in vivo, human
[15] = even low doses, after patient has developed pancreatitis; cited from earlier work
[16] = tested on: patients with HIV infection; conditions: in vivo; cited from earlier work
[17] = tested on: HIV p24 gag production; conditions: with 2',3'-dideoxyinosine, T-cell line
[18] = with gancyclovir about 500 mg/day iv, 2 weeks
[19] = about 1 to 7 mg/kg/day intravenously then about 2 to 14 mg/kg/day orally
[20] = patients with HIV infection, intravenous or oral

SMILES: Nc1ccn([C@H]2CC[C@@H](CO)O2)c(=O)n1 [2',3'-Dideoxycytidine]
- synergy with 2',3'-dideoxyinosine, protection of ATH8 against cytopathic effect of HIV [1]: synergistic

SMILES: Nc1ncnc2c1ncn2[C@H]1CC[C@@H](CO)O1 [2',3'-dideoxyadenosine]
- oral bioavailability [2]: can be orally bioavailable
- conversion to 2',3'-dideoxyinosine [3]: rapidly converted to 2',3'-dideoxyinosine

SMILES: OC[C@@H]1CC[C@H](n2cnc3c(O)ncnc32)O1 [2',3'-dideoxyinosine]
- hepatitis after discontinuation [4]: the hepatitis resolved
- recurrence of hepatitis after restart ([4]; po, 6.4 mg/kg/day): did not recur
- synergy with dextran sulfate, protection of ATH8 against cytopathic effect of HIV ([1]; with dextran sulfate): synergistic
- anergic patients developing skin test reactivity to at least one test antigen ([5]; after approximately 6 weeks of therapy): 7 of these 23 (anergic patients
- cutaneous delayed type hypersensitivity reaction of anergic patients ([5]; some patients): regained the ability to mount a cutaneous delayed type hypersensitivity reaction to at least one test antigen
- pancreatitis [6]: can definitely cause pancreatitis
- time for amylase to return to about normal [6]: about one
- evidence of pancreatitis after restart ([6]; 6.4 mg/kg/day): no evidence of pancreatitis
- recurrence of pancreatitis after restart ([6]; po, 6.4 mg/kg/day): did not recur
- serum amylase after restart ([6]; po, 6.4 mg/kg/day): 80 U/liter
- clinical symptoms of pancreatitis ([6]; po, 9.6 mg/kg/day): no clinical symptoms of pancreatitis
- Cmax [7]: ~10 µM
- half-life [7]: ~40 min
- oral absorption and pharmacokinetics on chronic administration (chronic oral administration in a given person): remain fairly constant
- oral absorption, non-fasting (oral, patient not in a fasting state): effectively absorbed
- clinical improvement ([8]; 35 evaluable patients): clinical improvement
- patients reporting an improvement in well being ([8]; 37 patients, increase in energy, decreased sleep requirements, or increased appetite): approximately one half of the 37 patients
- patients in whom the beneficial changes were seen ([8]; about 2 to 14 mg/kg/day orally with buffers or antacid): nearly all of the patients
- persistence of clinical improvements ([8]; about 2 to about 14 mg/kg/day orally with antiacids or buffers): can persist over at least a year's period of time
- average weight gain ([8]; first 6 weeks of therapy): 1.5 kg
- energy (change) ([8]; intravenous or oral route): an increase in energy
- weight (change) ([8]; intravenous or oral route): an increase in weight
- replication of HIV ([9]; 35 evaluable patients): a decrease in the replication in their HIV
- patients with no detectable serum HIV p24 antigen ([9]; after about one year, about 6.4 to 9.6 mg/kg/day oral): two
- serum HIV p24 antigen (change) ([9]; by week 6, about 1 to 7 mg/kg/day iv then about 2 to 14 mg/kg/day orally, patients with detectable p24): substantial decreases in their serum HIV p24 antigen
- patients with decline in serum HIV p24 antigen ([9]; first 6 weeks, about 6.4 to 9.6 mg/kg/day orally, 3 patients with detectable p24 before therapy): All 3 had a decline
- reduction of p24 antigen detectable in serum ([9]; intravenous or oral route): a reduction of the amount of p24 antigen
- serum HIV p24 antigen in patients viremic in the face of AZT ([9]; patients viremic in the face of AZT therapy): a fall in serum HIV p24 antigen
- load of HIV in circulating lymphocytes by polymerase chain reaction ([9]; while receiving 2',3'-dideoxyinosine): a decrease in the load of HIV in their circulating lymphocytes
- outcome of combination with AZT ([10]; AZT 300 mg/day with ddI 3.2 mg/kg/day, or AZT 600 mg/day alternating weekly with ddI 6.4 mg/kg/day, about one year): Beneficial effects are seen
- outcome of combination with ddC ([10]; ddC 0.015 mg/kg/day with ddI 3.2 mg/kg/day, or ddC 0.03 mg/day alternating weekly with ddI 6.4 mg/kg/day, about 6 months): Beneficial effects are seen
- outcome of combination with ribavirin ([10]; ddI 3.2 mg/kg/day orally, ribavirin 100 to 2400 mg/day orally, about 6 months): Beneficial effects are seen
- clinical course with pentamidine prophylaxis ([10]; ddI 4.8 mg/kg/day iv 2 weeks then 9.6 mg/kg/day orally 56 weeks, 300 mg pentamidine isothionate inhaled monthly): clinically did well
- outcome of combination with dextran sulfate ([10]; ddI 6.4 mg/kg/day orally, dextran sulfate 2700 mg/day iv, about 6 months): Beneficial effects are seen
- outcome of combination with rCD4 ([10]; ddI 6.4 mg/kg/day orally, rCD4 300 μg/kg/day iv, 1 year): Beneficial effects are seen
- outcome of combination with interferon alpha ([10]; ddI 1 to 14 mg/kg/day orally with 0.5 to 10 million units interferon alpha daily, about 3 months, Kaposi's sarcoma): Beneficial effects are seen
- outcome of combination with IL-2 ([10]; ddI 1 to 14 mg/kg/day orally with 25,000 to 1 million U/day IL-2, about 3 months): Beneficial effects are seen
- development of Pneumocystis carinii pneumonia ([10]; with 300 mg pentamidine isothionate inhaled monthly, about 56 weeks): did not develop Pneumocystis carinii pneumonia
- recurrence of cytomegalovirus retinitis ([10]; with acyclovir 4800 mg/day, 4 weeks): the retinitis has not recurred
- increase in weight [10, 18]: about 2.2 kg
- recurrence of cytomegalovirus retinitis [10, 18]: has not had a recurrence of the retinitis
- patient's report ([10]; with gancyclovir about 500 mg/day iv, ddI 6.4 mg/kg/day orally, 2 weeks): reports feeling better
- cumulative dose exceeded without neuropathy appearing [11]: > 1.5 gm/kg
- neuropathy after prompt stopping in warning phase [11]: the neuropathy subsided
- patients with improved cognitive function ([12]; 6 to 10 weeks of therapy, memory, speed and precision of doing tasks): 4 patients
- cognitive dysfunction associated with HIV infection ([12]; intravenous or oral route): an improvement in cognitive dysfunction
- memory quotient ([12]; one patient, about 9.6 mg/kg/day orally in 3 doses, from 111, after 6 weeks): 121
- suppression of retroviral replication [13]: known to suppress retroviral replication
- patients still having increases in circulating CD4+ lymphocytes ([14]; 3.2 to 4.8 mg/kg/day iv about 2 weeks, then about 6.4 to 9.6 mg/kg/day orally, about one year): 4 of the first 7 patients
- number of circulating CD4+ lymphocytes (change) [14, 19]: substantial increases in the number of circulating CD4+ lymphocytes
- number of circulating CD8+ lymphocytes (change) [14, 19]: increases in the number of circulating CD8+ lymphocytes
- number of circulating total lymphocytes (change) [14, 19]: increases in the number of circulating total lymphocytes
- time within which lymphocyte changes were observed ([14]; about 2 to 14 mg/kg/day orally after intravenous, within about): ≤ 2 weeks
- immune parameters improvement ([14]; below 2 mg/kg/day orally): not as consistently seen
- duration of lymphocyte changes ([14]; in many cases, about 2 to 14 mg/kg/day orally): at least one
- immune function ([14]; intravenous or oral route, long periods of time): improvement in immune function
- immune parameters improvement ([14]; more than 14 mg/kg/day orally, some patients): improvements in immune parameters
- CD4+ lymphocytes after treatment ([14]; one patient, baseline about 31, 1.6 mg/kg/day iv about 2 weeks, then oral 3.2 (10 weeks), 4.8 (21 weeks), 9.6 mg/kg/day (31 weeks)): about 90 CD4+ lymphocytes/mm^3
- CD4+ increases by prior AZT therapy ([14]; patients who had previously received 4 months or less of AZT): most consistently seen
- number of circulating CD4+ lymphocytes (change) [14, 20]: an increase in the number of circulating CD4+ lymphocytes; also recorded: increases in their circulating CD4+ cells
- number of circulating CD8+ lymphocytes (change) [14, 20]: an increase in the number of CD8+ lymphocytes; also recorded: increases in the number of CD8+ lymphocytes
- number of circulating total lymphocytes (change) [14, 20]: an increase in the number of circulating total lymphocytes; also recorded: increases in the number of total lymphocytes
- CD8+ lymphocytes after treatment ([14]; same first patient, baseline 189): about 302 CD8+ lymphocytes/mm^3
- total lymphocytes after treatment ([14]; same first patient, baseline 405): about 816 total lymphocytes/mm^3
- CD8+ lymphocytes after treatment ([14]; second patient, baseline 844, about one year): about 1256 CD8+ lymphocytes/mm^3
- total lymphocytes after treatment ([14]; second patient, baseline 1270, about one year): about 1794 total lymphocytes/mm^3
- CD4+ lymphocytes after treatment ([14]; second patient, baseline about 219, 4.8 mg/kg/day iv about 2 weeks then 9.6 mg/kg/day oral, about one year): about 359 CD4+ lymphocytes/mm^3

SMILES: Sc1ncnc2nc[nH]c12 [6-mercaptopurine]
- pancreatitis on re-administration [15]: causes pancreatitis that returns acutely

SMILES: Cc1cn([C@H]2C[C@H](N=[N+]=[N-])[C@@H](CO)O2)c(=O)[nH]c1=O [AZT, 3'-azido-2',3'-dideoxythymidine]
- synergy with 2',3'-dideoxyinosine, protection of ATH8 against cytopathic effect of HIV [1]: synergistic
- hepatic dysfunction [16]: can cause hepatic dysfunction
- pancreatitis or peripheral neuropathy [16]: not known to cause pancreatitis or a peripheral neuropathy
- toxicities and side effects [16]: anemia, other bone marrow suppression, and certain other toxicities such as myositis (muscle destruction or inflammation), headaches, nausea, vomiting, malaise, or seizures

SMILES: NC(=O)c1ncn([C@@H]2O[C@H](CO)[C@@H](O)[C@H]2O)n1 [Ribavirin]
- effect on the anti-HIV effect of 2',3'-dideoxyinosine (HIV p24 gag production) [17]: induce enhancement of the anti-HIV effect
